Tests used:
Rescue flies = test: Short-term memory (60 mins) with mated female targets, Rescue flies; assay type: in vivo, Drosophila melanogaster; conditions: for short-term memory, mated female target: 86 μM MPEP, 400 nM LY341495, 573 μM MPPG, 348 μM MTPG; for memory at 60 minutes post training, mated female target: 5 day old, 8.6 mM MPEP, 400 nM LY341495
Experimental: Effects of drug treatment on short-term memory (60 mins) in flies lacking dfmr1 activity with mated female targets. Short-term (60 min.) memory was measured in Rescue and FS flies that were either fed control food or underwent various drug treatments as described below. Short-term memory was measured by placing a trained male in a holding chamber for 60 minutes (after being trained for one hour with a previously mated female), then subsequently placing him in a testing chamber with a mated female target for a ten-minute courtship interval (C.I.). This C.I. was compared to the C.I. obtained for naïve courtship of a previously mated female, i.e., C.I. during the first 10 minutes of the training session with a previously mated female. Additionally, for reference the C.I. during the last 10 minutes of the training period was also determined. Numbers of flies are indicated above each bar for all groups. The levels of significance are indicated as follows; *=p<0.05; **=p<0.005; ***=p<0.0001.
Restoration of short-term memory with mGluR antagonists. To establish that the failure to observe memory was not due to a problem with recognizing or processing the appropriate cues from the virgin female target, we used a modified version of the conditioned courtship paradigm where the male is paired with a mated female target subsequent to training (Kane et al., 1997; Joiner and Griffith, 1997; Joiner and Griffith, 1999; Kamashev et al., 1999). Again, with pharmacologic treatment it is necessary to utilize more then one compound to confirm the specificity of the target, so in this case we used four mGluR antagonists. […] It is also important to note that the robust deficit in synaptic plasticity in FS flies, with regard to memory, is a critical extension of the previous models of Fragile X syndrome in model organisms, since this is one of the most prominent aspects of the human disorder. Furthermore, we have shown that antagonism of the mGluRs can restore synaptic plasticity in the Drosophila model of Fragile X syndrome.

FS mutant flies = test: Fusion of mushroom body β-lobes (anti-FasII staining), FS mutant flies; assay type: in vivo, Drosophila melanogaster
Experimental: Histological analysis was performed on relevant experimental flies, showing the fusion of MB beta lobes and the rescue of these fusions with in mGluR antagonists (FIG. 18). Brains from (0-1 day old) dfmr1 mutant adult flies were stained with anti-fasciclin II (ID4) and a rhodamine-coupled secondary antibody. The α, β, & γ lobes of the MBs are clearly labeled with this antibody and appear normal in this mutant brain (Panel A). Panels B-E show a higher magnification of the β-lobes at the midline. […] Panels C-E show mutants brains displaying a C) “mild” (arrowhead), D) “moderate” and E) “severe” level of midline crossing by the […]. […] WT rescue flies are dfmr1 mutants containing one copy of the dfmr1 genomic rescue fragment. The number of brains examined are listed below each group.
Rescue of β-lobe fusions with mGluR antagonists. Previously it has been established that the mushroom bodies are involved in learning and memory in the conditioned courtship and the odor shock classical conditioning paradigms in Drosophila (deBelle and Heisenberg, 1994; Joiner and Griffith, 1999; McBride et al, 1999; Zars et al, 2000; Paschel and Preat, 2001). […] When labeled with anti-FasII, we observed a range of β-lobe fusion defects in brains derived from 0-2 day old FS mutant flies, but not Rescue flies (FIG. 18).
Since treatment of FS mutant flies with mGluR antagonists rescued the memory defects observed in these flies, we examined the effect of these treatments on the β-lobe fusion defect to determine if the rescue of the two phenotypes was correlated. We raised FS mutant flies in food containing 8.6 mM MPEP, 400 nM LY341495 or 350 mM MTPG, then examined the morphology of the MBs in 0-2 day old adults. […] For example, mild fusion defects were only observed in 18% of FS mutant brains raised in food containing 400 nM LY341495 (FIG. 18F). No effect was observed when these drugs were fed to Rescue flies during development (not shown).
If this is true, then we would expect that the behavioral rescue obtained by treating FS mutant flies these drugs during adulthood alone would lead to a similar morphological rescue. To test this hypothesis, we treated FS mutant flies with 8.6 mM MPEP for four days starting at eclosion, and then transferred them to normal food for 24 hours before examining the morphology of their MBs. For comparison we also examined the MBs of flies left in control food for five days. […] Thus it appears that rescue of this morphological defect is not absolutely necessary for the rescue of the memory defects observed in the dfmr1 mutant flies.

[1] = raised in food containing 8.6 mM MPEP, 400 nM LY341495 or 350 mM MTPG, 0-2 day old adults

## Cc1cccc(C#Cc2ccccc2)n1 [MPEP, 2-methyl-6-(phenylethynyl)pyridine]
Rescue flies
  short-term memory, mated female target: demonstrated intact short-term memory
  memory at 60 minutes post training, mated female target: demonstrate memory at 60 minutes post training
FS mutant flies; 8.6 mM MPEP for four days starting at eclosion (adulthood only)
  β-lobe fusion defects: did not observe any rescue of the β-lobe fusion defects
FS mutant flies; [1]
  β-lobe fusion defects: rescue of the β-lobe fusion defects

## CC(N)(C(=O)O)c1ccc(-c2nnn[nH]2)cc1 (racemic) [MTPG, (RS)-α-methyl-4-tetrazolylphenylglycine]
Rescue flies
  short-term memory, mated female target: demonstrated intact short-term memory
  memory at 60 minutes post training, mated female target: demonstrate memory at 60 minutes post training
FS mutant flies; [1]
  β-lobe fusion defects: rescue of the β-lobe fusion defects

## N[C@](CC1c2ccccc2Oc2ccccc21)(C(=O)O)[C@H]1C[C@@H]1C(=O)O [LY341495, (2S)-2-amino-2-[(1S,2S)-2-carboxycycloprop-1-yl]-3-(xanth-9-yl) propionic acid]
Rescue flies
  short-term memory, mated female target: demonstrated intact short-term memory
  memory at 60 minutes post training, mated female target: demonstrate memory at 60 minutes post training
FS mutant flies; raised in food containing 400 nM LY341495, untreated roughly 70%
  FS mutant brains with (mild) fusion defects: 18%
FS mutant flies; [1]
  β-lobe fusion defects: rescue of the β-lobe fusion defects

From patent publication US20080187492A1, “Drosophila Models For Diseases Affecting Learning and Memory” (priority 2004, published 2008)
